Measurements published in patent US20110086851A1, “SUBSTITUTED QUINAZOLINES AND THEIR USES FOR MYEOLOPROLIFIC AND THROMBOTIC DISEASES” (priority 2008, published 2011).
pIC50: −log10 of the molar value. Counter-ions that a name gives are not always drawn.

Tests used:
[1] = system: erythroid or myelomonocytic differentiation; details: stimulated by erythropoietin or granulocyte-macrophage colony-stimulating factor; cited from earlier work
[2] = biological target: human phosphodiesterase III (PDE III); details: cited from earlier work
[3] = system: human megakaryocytopoiesis; details: cited from earlier work
[4] = in vivo; cited from earlier work
[5] = Pharmacokinetics in humans; format: in vivo, human; details: after anagrelide treatment
From the text: The metabolism of anagrelide generally proceeds extremely rapidly, resulting in a less than ideal pharmacokinetic profile of the drug. […] This, combined with the side-effects profile, can lead to poor patient compliance. Furthermore, anagrelide undergoes a large first pass effect (>50%) leading to considerable intersubject variation in achieved exposures and, therefore, potentially variable drug response. Also, exposure to the pharmacologically active metabolite varies dramatically between patients since its formation is dependent on CYP1A, an enzyme whose expression is highly dependent on exposure to inducing agents such as cigarette smoke. Overall, this may result in the need for careful dose titration in patients being treated with anagrelide.

[6] = system: human phosphodiesterase III (PDE III); assay: PDE III inhibition; format: biochemical
From the text: In early volunteer trials, the most frequently reported adverse effects AEs other than headache were palpitations, postural dizziness and nausea. During patient studies, the most frequently reported drug-related AEs were headache, palpitations, oedema/fluid retention, nausea/vomiting, diarrhea, dizziness and abdominal pain. These effects are all likely to arise from the secondary, cardiovascular pharmacology associated with anagrelide resulting from its inhibitory effects on human phosphodiesterase III (PDE III). […] Inhibition of myocardial PDE III leads to positive inotropy (increasing of the force of contractions of the heart), increased chronotropy (increase in heart rate), and peripheral vasodilatation. Such cardiovascular manifestations of this inhibition are typically seen with the classical positive inotropes, milrinone and enoximone, and exploited in the short-term acute treatment of congestive heart failure. However, in the treatment of a so-called silent disease (i.e., asymptomatic) such as ET, the cardiovascular side-effects of palpitations and tachycardia associated with anagrelide limit its utility and a significant proportion of patients—reportedly between 25 and 50%—fail to tolerate the drug during long term treatment.

Compound | effect on erythroid or myelomonocytic differentiation [1] | pIC50 [2] | pIC50 ([3]; in vitro, dose-dependent, read-out: estimated IC50, inhibition of TPO-induced megakaryocytopoiesis) | first pass effect [4] | exposure in vivo relative to the parent drug [5] | potency as PDE III inhibitor relative to anagrelide [6] | potency of inhibition of megakaryocytopoiesis relative to the parent drug [3] | typical half-life [4]
O=C1CN2Cc3c(ccc(Cl)c3Cl)N=C2N1 [Anagrelide, 6,7-dichloro-1,5-dihydroimidazo[2,1-b]-quinazolin-2(3H)-one hydrochloride monohydrate] | does not affect | ~7.54 | ~7.59 | > 50% |  |  |  | 
O=C1NC2=Nc3ccc(Cl)c(Cl)c3CN2C1O (stereo not drawn) [3-hydroxyanagrelide] |  |  |  |  | 2-3 fold | over 40 fold | no more potent than the parent drug | 2.5 h
Cc1[nH]c(=O)c(C#N)cc1-c1ccncc1 [milrinone] |  | 6.46 to 6.77 |  |  |  |  |  | 
